Assay results as given in patent US5026694A, “Platinum complexes with one radiosensitizing ligand” (priority 1989, dated 1991).
pIC50: −log10 of the molar value.

Tests used:
[1] = system: Chinese hamster ovary (CHO) cells; experiment: Toxicity in hypoxic and aerated CHO cells (plating efficiency/survival); format: cell-based
Procedure: The toxicity of the invention compounds with respect to Chinese hamster ovary (CHO) cells was compared in air and in nitrogen induced hypoxia as described by Moore, B. A., et al, Radiation Research (1976) 67:459-478. The radiosensitizing ligands, or cis or transdichlorodiamine platinum II (DDP) or the . bisubstituted platinum complexes, PtCl2 (L)2, were used as controls.
The cells were carried in MEM a medium with 10% fetal calf serum, and plating efficiencies were determined on the seventh day after plating.
In similar experiments at 100 mM/dm^3, MISO and trans-[PtCl2 (miso)2 ] show no toxicity. Survival rates for trans-DDP and monoammine were 0.2 and 0.1 respectively.
Using 100 mM levels, mono-6NQ caused plating efficiency to drop to 0 after an hour, while 6NQ had no effect after 3 hours.

[2] = system: L1210 cells, cDDP sensitive line; experiment: Toxicity in cisDDP-sensitive L1210 cells; format: cell-based; conditions: listed as trans mono MISO, read-out: ID50 (the source's name)
Source text: (§1) Patients become resistant to cisplatin (cisDDP) and to many related drugs.

[3] = system: L1210 cells, cDDP resistant line; experiment: Toxicity in cisDDP-resistant L1210 cells (cross-resistance); format: cell-based; conditions: L1210, cDDP resistant line; read-out: ID50 (the source's name)
Source text: as §1

KHT tumor model = conditions: 200 mg/kg, 0.5 or 1 hour prior to X-irradiation; FIG. 6
hypoxic cells = conditions: Teicher et al; cited from earlier work

| Molecule | toxicity compared with other isomer ([1]; 100 mM/dm^3, FIG. 1) | approximate order of hypoxic toxicity of platinum complexes ([1]; hypoxia) | pIC50 [2] | pIC50 [3] | radiosensitization in vivo (KHT tumor model) | killing of hypoxic cells / toxicity toward oxygenated cells (hypoxic cells) |
| --- | --- | --- | --- | --- | --- | --- |
| COCC(O)Cn1cc[n+]([Pt-2]([NH3+])([Cl])[Cl])c1[N+](=O)[O-] (stereo not drawn) [trans-mono-MISO, PtCl2 (NH3) (misonidazole)] | trans isomer is more toxic than cis | cis-DDP ff trans-mono-MISO f monoammine Z cis-mono-MISO f trans-DDP f mono-METRO Z mono-NI f mono-ANT | 2.19 | 1.73 | enhance the effect of the X-rays | – |
| mono-substituted platinum complex of 1,2-diamino-4-nitrobenzene [Plato] | – | – | – | – | – | high capacity for killing of hypoxic cells and less toxicity toward oxygenated cells |
